Among the data in BindingDB's records for doi:10.1021/bi200655g (Glaxosmithkline, 2011) are Ki values, retold here.

In this assay the target is T1, Peptide deformylase (Streptococcus pneumoniae (strain ATCC BAA-255 / R6), UniProt Q8DP79).
T1 sequence (Q8DP79 whole entry): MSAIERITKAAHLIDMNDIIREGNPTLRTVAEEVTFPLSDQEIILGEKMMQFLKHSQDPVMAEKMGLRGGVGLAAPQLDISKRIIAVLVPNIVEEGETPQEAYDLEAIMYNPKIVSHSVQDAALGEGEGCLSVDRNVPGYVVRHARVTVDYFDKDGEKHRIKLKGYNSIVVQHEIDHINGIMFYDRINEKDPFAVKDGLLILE
Description: Binding Assay. The text has this:
Binding assay using PDF inhibitors.
Broadly, the Ki is the dissociation constant of the complex between target and ligand, obtained from inhibition or displacement. A higher Ki goes with a looser hold on the target. The compound `CCCCC[C@H](CN(O)C=O)C(=O)NNc1nccc(C(F)(F)F)n1` [PDF inhibitor, compound 1] registered a Ki of 6310 nM.

For `CNC(=O)c1cccc(C)c1Nc1nc(N2CCN(c3ccccc3Cl)CC2)nc(N2CSC[C@H]2C(=O)NCC(=O)NO)n1` [PDF inhibitor, compound 2], the affinity corresponds to a Ki of 334 nM.

Take `O=CC(O)CCNC(=O)c1cccc(Cl)c1Cl` (stereo unspecified) [PDF inhibitor, compound 4]: the affinity corresponds to a Ki of 25900 nM.

The compound `CNC(=O)c1cccc(C)c1Nc1nc(N2CCN(c3ccccc3Cl)CC2)nc(N2CSC[C@H]2COCC(=O)NO)n1` [PDF inhibitor, compound 6] had a Ki of 213 nM.

`Cc1ccccc1Nc1nc(N2CCN(c3ccccc3Cl)CC2)nc(N2CSC[C@H]2C(=O)NCC(=O)NO)n1` [PDF inhibitor, compound 7] registered a Ki of 650 nM. This Ki lies about 3.1-fold higher than the previous one.

The compound `Cc1ccccc1Nc1nc(N2CCN(c3ccccc3Cl)CC2)nc(N2CSC[C@H]2COCC(=O)NO)n1` [PDF inhibitor, compound 8] showed an inhibition constant (Ki) of 53.7 nM.
